Legend:
Format in all cases: cell-based
REC-1 cells = experiment: Human mantle cell lymphoma cell line REC-1 proliferation suppression test; conditions: Rec1, 72 h, compound 10 μM, 3 days, WST-8, read-out: cell survival rate (% of control) REC-1
Protocol: Example 53: Human Mantle Cell Lymphoma Cell Line REC-1 Proliferation Suppression Test
(§1) REC-1 cells (ATCC, CRL-3004) were suspended in medium B, and diluted as appropriate with 0.4% trypan blue solution (Sigma-Aldrich Co. LLC.). The number of viable cells was counted with a hemocytometer (Funakoshi Co., Ltd.). A cell suspension obtained by diluting with medium B such that the value obtained was 1.3×10^5 cells/mL was dispensed into a Falcon 96 well flat bottom plate (Corning Incorporated) at 75 μL/well, and culture was started at 37° C. under 5% CO2 stream. The next day, a solution obtained by diluting 4 mM DMSO solution of the test compound 100-fold with medium B was added by 25 μL to each well (final concentration of test compound 10 μM). 25 μL of a solution obtained by diluting DMSO 100-fold with medium B was added to the control well. After culturing at 37° C. in a 5% CO2 stream for 3 days, the cell proliferation activity was measured according to the instruction manual attached to WST-8 Kit (KISHIDA CHEMICAL Co., Ltd.).

MM.1S cells = experiment: Human myeloma cell line MM.1S proliferation suppression test; conditions: MM1.S, 72 h, compound 10 μM, 3 days, WST-1 or WST-8, read-out: cell survival rate (% of control) MM.1S
Protocol: Example 51: Human Myeloma Cell Line MM.1S Proliferation Suppression Test
MM.1S cells (ATCC, CRL-2974) were suspended in 10% fetal calf serum (Thermo Fisher Scientific)-containing RPMI1640 medium (ATCC, hereinafter abbreviated as medium B), and diluted as appropriate with 0.4% trypan blue solution (Sigma-Aldrich Co. LLC.). The number of viable cells was counted with a hemocytometer (ERMA INC.). It was diluted with medium B such that the value obtained was 2×10^5 cells/mL. On the other hand, 50 μL of a solution obtained by diluting 4 mM DMSO solution of the test compound 200-fold with medium B was added to each well of a Falcon 96-well flat bottom plate (Corning Incorporated), and the above-mentioned cell suspension was dispensed at 50 μL/well (final concentration of test compound 10 μM). 50 μL of a solution obtained by diluting DMSO 200-fold with medium B was added to the control well. After culturing at 37° C. in a 5% CO2 stream for 3 days, the cell proliferation activity was measured using WST-1 (DOJINDO LABORATORIES) or WST-8 Kit (KISHIDA CHEMICAL Co., Ltd.) and according to each instruction manual attached thereto.

Daudi cells = experiment: Human Burkitt lymphoma cell line Daudi proliferation suppression test; conditions: 72 h, compound 10 μM, 3 days, WST-8, read-out: cell survival rate (% of control) Daudi
Description: Example 54: Human Burkitt Lymphoma Cell Line Daudi Proliferation Suppression Test
as §1, with “Daudi” for “REC-1”, “(National Institutes of Biomedical Innovation, Health and Nutrition (NIBIOHN), JCRB9071)” for “(ATCC, CRL-3004)”, “(ERMA INC.).” for “(Funakoshi Co., Ltd.).”

Pfeiffer cells = experiment: Human diffuse large B-cell lymphoma cell line Pfeiffer proliferation suppression test; conditions: 144 h, compound 10 μM, 3 days + re-plating with compound 3 days, WST-8, read-out: cell survival rate (% of control) Pfeiffer
Description: Example 52: Human Diffuse Large B-Cell Lymphoma Cell Line Pfeiffer Proliferation Suppression Test
Pfeiffer cells (ATCC, CRL-2632) were suspended in medium B, and diluted as appropriate with 0.4% trypan blue solution (Sigma-Aldrich Co. LLC.). The number of viable cells was counted with a hemocytometer (Funakoshi Co., Ltd.). A cell suspension obtained by diluting with medium B such that the value obtained was 1.3×10^5 cells/mL was dispensed into a Falcon 96 well flat bottom plate (Corning Incorporated) at 75 μL/well, and culture was started at 37° C. under 5% CO2 stream. The next day, a solution obtained by diluting 4 mM DMSO solution of the test compound 100-fold with medium B was added by 25 μL to each well (final concentration of test compound 10 μM). 25 μL of a solution obtained by diluting DMSO 100-fold with medium B was added to the control well. After culturing at 37° C. in a 5% CO2 stream for 3 days, the cell culture medium was uniformly suspended with a multi channel pipette, 14 μL per well was transferred into another new Falcon 96 well flat bottom plate. A solution obtained by diluting 4 mM DMSO solution of the same test compound as the first time 400-fold with medium B was added by 86 μL to a total amount of 100 μL (final concentration of test compound 10 μM). After culturing at 37° C. in a 5% CO2 stream for 3 days, the cell proliferation activity was measured according to the instruction manual attached to WST-8 Kit (KISHIDA CHEMICAL Co., Ltd.).

Kasumi-7 cells = experiment: Human acute lymphoblastic leukemia cell line Kasumi-7 proliferation suppression test; conditions: 72 h, compound 10 μM, 3 days, WST-8, read-out: cell survival rate (% of control) Kasumi-7
Description: Example 55: Human Acute Lymphoblastic Leukemia Cell Line Kasumi-7 Proliferation Suppression Test
Kasumi-7 cells (NIBIOHN, JCRB1401) were suspended in 20% fetal calf serum (Thermo Fisher Scientific, Inc.)-containing RPMI1640 medium (ATCC, hereinafter abbreviated as medium C), and diluted as appropriate with 0.4% trypan blue solution (Sigma-Aldrich Co. LLC.). The number of viable cells was counted with a hemocytometer (Funakoshi Co., Ltd.). A cell suspension obtained by diluting with medium C such that the value obtained was 1.3×10^5 cells/mL was dispensed into a Falcon 96 well flat bottom plate (Corning Incorporated) at 75 μL/well, and culture was started at 37° C. under 5% CO2 stream. The next day, a solution obtained by diluting 4 mM DMSO solution of the test compound 100-fold with medium C was added by 25 μL to each well (final concentration of test compound 10 μM). 25 μL of a solution obtained by diluting DMSO 100-fold with medium C was added to the control well. After culturing at 37° C. in a 5% CO2 stream for 3 days, the cell proliferation activity was measured according to the instruction manual attached to WST-8 Kit (KISHIDA CHEMICAL Co., Ltd.).

## O=C1CCC(N2C(=O)c3ccccc3C2=O)C(=O)N1 (centres unmarked) [Thalidomide, reference compound]
REC-1 cells
  viability at 10 µM: 94%
MM.1S cells
  viability at 10 µM: 79%
Daudi cells
  viability at 10 µM: 81%
Pfeiffer cells
  viability at 10 µM: 104%
Kasumi-7 cells
  viability at 10 µM: 96%

— patent publication US11299485B2, “Thiophene derivative and use thereof” (FUJIMOTO CO., LTD., priority 2018, dated 2022)
